# Experimental data published in patent US20110130380A1, “Heteroaryl Kinase Inhibitors” (priority 2009, published 2011).
# Target: Cdk9/cyclinT1 (Homo sapiens, UniProt P50750)
# Experiment: Cdk9/cyclinT1 IMAP Protocol (fluorescence polarization kinase assay)
# Details: Cdk9_cyclinT1_IC50, Table V; generated using one of the two Cdk9/cyclinT1 assays (IMAP or Alpha Screen), not stated which; ATP 6 uM
# Chain of Cdk9/cyclinT1 (P50750 whole entry): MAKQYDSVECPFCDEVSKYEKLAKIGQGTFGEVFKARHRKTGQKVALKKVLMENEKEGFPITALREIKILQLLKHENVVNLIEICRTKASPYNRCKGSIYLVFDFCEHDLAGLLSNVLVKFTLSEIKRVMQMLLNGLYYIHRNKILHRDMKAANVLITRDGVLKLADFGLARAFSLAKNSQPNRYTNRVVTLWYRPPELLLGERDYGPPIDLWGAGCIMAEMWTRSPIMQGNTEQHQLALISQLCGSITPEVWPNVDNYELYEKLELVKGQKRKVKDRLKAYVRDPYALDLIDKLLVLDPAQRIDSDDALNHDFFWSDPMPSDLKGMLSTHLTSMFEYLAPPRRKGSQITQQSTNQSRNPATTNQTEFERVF
# Chain of Cdk9/cyclinT1 (O60563 whole entry partner): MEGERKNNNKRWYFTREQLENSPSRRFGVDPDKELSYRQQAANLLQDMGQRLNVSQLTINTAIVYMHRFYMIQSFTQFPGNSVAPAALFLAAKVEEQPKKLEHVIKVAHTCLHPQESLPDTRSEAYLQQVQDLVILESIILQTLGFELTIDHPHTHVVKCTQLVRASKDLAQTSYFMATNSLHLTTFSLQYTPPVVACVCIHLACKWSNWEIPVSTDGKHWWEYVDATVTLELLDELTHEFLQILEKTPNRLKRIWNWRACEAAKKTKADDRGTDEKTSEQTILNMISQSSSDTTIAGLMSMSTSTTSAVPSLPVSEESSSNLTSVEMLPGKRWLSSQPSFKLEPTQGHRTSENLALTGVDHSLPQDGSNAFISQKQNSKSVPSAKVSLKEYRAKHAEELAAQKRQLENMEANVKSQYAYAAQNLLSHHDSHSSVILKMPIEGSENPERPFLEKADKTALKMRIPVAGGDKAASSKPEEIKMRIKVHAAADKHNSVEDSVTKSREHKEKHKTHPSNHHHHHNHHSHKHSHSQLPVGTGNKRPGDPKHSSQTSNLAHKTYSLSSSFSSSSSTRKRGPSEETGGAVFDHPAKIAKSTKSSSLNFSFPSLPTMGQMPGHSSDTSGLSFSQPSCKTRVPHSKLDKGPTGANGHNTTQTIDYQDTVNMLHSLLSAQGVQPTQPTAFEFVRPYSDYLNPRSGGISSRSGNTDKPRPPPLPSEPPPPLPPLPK
row,Structure (SMILES),IC50 [nM]
1,"COC[C@H]1C[C@@H](C(=O)Nc2cc(-c3cccc(NCC4(C)CCOCC4)n3)c(Cl)cn2)CN1 [Example 246, (3R,5R)-5-Methoxymethyl-pyrrolidine-3-carboxylic acid {5′-chloro-6-[(4-methyl-tetrahydro-pyran-4-ylmethyl)-amino]-[2,4′]bipyridinyl-2′-yl}-amide]",6
2,"CC(C)O[C@H]1CNC[C@@H]1C(=O)Nc1cc(-c2cccc(NCC3(C)CCOCC3)n2)c(Cl)cn1 [Example 249, (3S,4R)-4-Isopropoxy-pyrrolidine-3-carboxylic acid {5′-chloro-6-[(4-methyl-tetrahydro-pyran-4-ylmethyl)-amino]-[2,4′]bipyridinyl-2′-yl}-amide]",9
3,"C[C@H]1CNC[C@@H](C(=O)Nc2cc(-c3cccc(NCC4CCOCC4)n3)c(Cl)cn2)C1 (single isomer, unassigned) [Example 129]",13
4,"C[C@H](O)CNc1cccc(-c2cc(NC(=O)[C@@H]3CCCNC3)ncc2Cl)n1 [Example 31, (R)-Piperidine-3-carboxylic acid [5′-chloro-6-((S)-2-hydroxy-propylamino)-[2,4′]bipyridinyl-2′-yl]-amide]",46
5,"CC1(C)CO[C@@H](CNc2nc(-c3cc(NC(=O)[C@@H]4CCCNC4)ncc3Cl)ccc2F)CO1 (single isomer, unassigned) [Example 264]",1
6,"O=C(Nc1cc(-c2cccc(NC[C@@H]3CCCOC3)n2)c(Cl)cn1)[C@@H]1CCCNC1 (single isomer, unassigned) [Example 79]",< 8

# Second part, the compound after the results:
row,IC50 [nM],Structure (SMILES)
1,< 8,"CC(C)S(=O)(=O)N1CCC[C@H](C(=O)Nc2cc(-c3nc(NCC4CCOCC4)ccc3Cl)c(Cl)cn2)C1 [Example 112, (S)-1-(Propane-2-sulfonyl)-piperidine-3-carboxylic acid {3,5′-dichloro-6-[(tetrahydro-pyran-4-ylmethyl)-amino]-[2,4′]bipyridinyl-2′-yl}-amide]"
2,< 8,"CC(C)C(=O)Nc1cc(-c2nc(NCC3CCOCC3)ccc2Cl)c(Cl)cn1 [Example 86, N-{3,5′-Dichloro-6-[(tetrahydro-pyran-4-ylmethyl)-amino]-[2,4′]bipyridinyl-2′-yl}-isobutyramide]"
3,9,"O=C(Nc1cc(-c2nc(NCC3CCOCC3)ccc2Cl)c(Cl)cn1)[C@H]1CNC[C@H]1F [Example 102, (3R,4S)-4-Fluoro-pyrrolidine-3-carboxylic acid {3,5′-dichloro-6-[(tetrahydro-pyran-4-ylmethyl)-amino]-[2,4′]bipyridinyl-2′-yl}-amide]"
4,18,"C[C@H]1CC[C@@H](C(=O)Nc2cc(-c3cccc(NCC4CCOCC4)n3)c(Cl)cn2)CN1 (racemic) [Example 126, (3R,6S)-/(3S,6R)-6-Methyl-piperidine-3-carboxylic acid {5′-chloro-6-[(tetrahydro-pyran-4-ylmethyl)-amino]-[2,4′]bipyridinyl-2′-yl}-amide]"
5,1,"COC1(CNc2ccc(Cl)c(-c3cc(NC(=O)[C@@H]4CCCNC4)ncc3Cl)n2)CCOCC1 [Example 192, (R)-Piperidine-3-carboxylic acid {3,5′-dichloro-6-[(4-methoxy-tetrahydro-pyran-4-ylmethyl)-amino]-[2,4′]bipyridinyl-2′-yl}-amide]"
6,9,"C[C@@H]1CC[C@@H](C(=O)Nc2cc(-c3cccc(NCC4CCOCC4)n3)c(Cl)cn2)CN1 (racemic) [Example 127, (3R,6R)-/(3S,6S)-6-methyl-piperidine-3-carboxylic acid {5′-chloro-6-[(tetrahydro-pyran-4-ylmethyl)-amino]-[2,4′]bipyridinyl-2′-yl}-amide]"
7,11,"CC(C)C(=O)Nc1cc(-c2cccc(NCC3CCOCC3)n2)c(Cl)cn1 [Example 70, N-{5′-Chloro-6-[(tetrahydro-pyran-4-ylmethyl)-amino]-[2,4]bipyridinyl-2′-yl}-isobutyramide]"
